Patent US20120135864A1, “POLLINATION IMPROVER” (TAMINCO, NAAMLOZE VENNOOTSCHAP, priority 2009, published 2012)

Experiments:
Format in all cases: in vivo
[1] = tested on: Winter Barley cv Carat; assay: Winter barley pot trial under glasshouse conditions: grain yield and thousand grain weight; conditions: for Grain Yield (%) T1 Timing / Grain Yield (%) T2 Timing: untreated = 100; for Grain Yield (g per Pot) T1 Timing: sprayed at T1 (Growth Stage 52: one quarter ear emergence); for Grain Yield (g per Pot) T2 Timing: sprayed at T2 (Growth Stage 65-69: at time of anthesis)
Description: (§1) The applied concentration of the composition of the present invention can vary widely depending on the water volume applied to plants as well as other factors such as plant age and size, and plant sensitivity to the final seed yield and crop quality improver. […] The rate of other components such as spreaders and stickers can be 50-200 ml per ha. The rate of cytokinin can typically be 0.001 to 1.0 percent of the formulation. […] ADD=at least one from class (f) each at <3 g/l, plus at least one from class (c). Winter Barley: […] Harvested: 28 July. […] Harvested: 28 July. Navy Bean: […] Harvested: 28 August. […] Harvested: 28 August. Statistical Layout: Randomised Complete Block trial, under glasshouse conditions, United Kingdom.

[2] = tested on: Winter Wheat cv Limerick; assay: Winter wheat pot trial under glasshouse conditions: grain yield and thousand grain weight; conditions: for Grain Yield (%) T1 Timing / Grain Yield (%) T2 Timing: relative to untreated; for Grain Yield (g per Pot) T1 Timing: sprayed at T1 (Growth Stage 52: one quarter ear emergence); for Grain Yield (g per Pot) T2 Timing: sprayed at T2 (Growth Stage 65-69: at time of anthesis)
Description: as §1

[3] = tested on: Phaseolus vulgaris (NAVY BEAN) cv Primel; assay: Navy bean pot trial under glasshouse conditions: seed yield and seed weight; conditions: for Seed Yield (%) T1 Timing / Seed Yield (%) T2 Timing: relative to untreated; for Seed Yield (g per Pot) T1 Timing: sprayed at T1 (Growth Stage R1: first flowering); for Seed Yield (g per Pot) T2 Timing: sprayed at T2 (Growth Stage R3)
Description: as §1

[4] = tested on: Glycine max (SOYBEAN); assay: Soybean pot trial under glasshouse conditions: seed yield and thousand seed weight; conditions: for Seed Yield (%) T1 Timing / Seed Yield (%) T2 Timing: relative to untreated; for Seed Yield (g per Pot) T1 Timing: sprayed at T1 (Growth Stage R1: first flowering); for Seed Yield (g per Pot) T2 Timing: sprayed at T2 (Growth Stage R3)
Description: as §1

[5] = tested on: Winter Wheat (Mean of 3 Varieties); assay: Grain quality improvement pot trial, winter wheat
Text: (§2) Thousand grain weight, specific weight and % screenings are different aspects of crop quality. For example, specific weight (bushel weight) is the weight of a given volume of grain, expressed in kg/hl. For example, growers have to meet standards of 76 for wheat and 64 for barley in order to meet minimum quality requirements. Varieties with the highest values are those most likely to produce acceptable grain lots. Aspects of crop quality for different varieties of crops are found in The Pocket Guide to Varieties of Cereals, Oilseeds and Pulses (NIAB Association). Other quality standards include, but are not limited to, endosperm texture, protein content (%), Hagberg falling number, Zeleny volume (cc), Chopin Alveograph, malt extract, IBD approval—brewing, IBD approval—distilling, IBD approval—grain distilling, sieving %<2.25 mm, sieving %<2.5 mm, nitrogen content, kernel content, sieving %<2.0 mm, oil content (%), oil type, hilum colour, overseas malting, hot water extract, and seed colour. Examples of % screenings are 2.2 mm and 2.5 mm. Such measures can be used in determining the effect provided by the present invention.
(§3) The TAMPF formulation example in these experiments included AN+AC+ADD, applied at the rate of 1 litre per hectare. ADD=at least one from class (f) each at <3 g/l, plus at least one from class (c).
(§4) Trials information: grown in pots in standard multi-purpose compost of pH 6.5, at 6/7 seeds per 9 cm pot (winter wheat), or 5/6 seeds per 9 cm pot (winter barley). Sprayed at the start of the anthesis growth stage (=shortly after ear emergence: GS60)

[6] = tested on: Winter Barley (Mean of 3 Varieties); assay: Grain quality improvement pot trial, winter barley
Text: as §2, §3, §4

[7] = sprayed at start of anthesis (GS60)

Row | Compound | Grain Yield (%) T1 Timing ([1]; T1 (Growth Stage 52)) [%] | Grain Yield (%) T2 Timing ([1]; T2 (Growth Stage 65-69)) [%] | Grain Yield (g per Pot) T1 Timing [1] [g per Pot] | Grain Yield (g per Pot) T2 Timing [1] [g per Pot] | Grain Yield (%) T1 Timing ([2]; T1 (Growth Stage 52)) [%] | Grain Yield (%) T2 Timing ([2]; T2 (Growth Stage 65-69)) [%] | Grain Yield (g per Pot) T1 Timing [2] [g per Pot] | Grain Yield (g per Pot) T2 Timing [2] [g per Pot] | Seed Yield (%) T1 Timing ([3]; T1 (Growth Stage R1)) [%] | Seed Yield (%) T2 Timing ([3]; T2 (Growth Stage R3)) [%] | Seed Yield (g per Pot) T1 Timing [3] [g per Pot] | Seed Yield (g per Pot) T2 Timing [3] [g per Pot] | Seed Yield (%) T1 Timing ([4]; T1 (Growth Stage R1)) [%] | Seed Yield (%) T2 Timing ([4]; T2 (Growth Stage R3)) [%] | Seed Yield (g per Pot) T1 Timing [4] [g per Pot] | Seed Yield (g per Pot) T2 Timing [4] [g per Pot] | also measured
1 | O=S(O)(O)=S [Thiosulphate] | 102.8 | 102.4 | 25.5 | 25.4 | 108.4 | 111.7 | 32.4 | 33.4 | 108.6 | 109.9 | 59.1 | 59.8 | 108.8 | 110.3 | 35.8 | 36.3 | Thousand Grain Weight (g) T1 Timing ([1]; T1 (Growth Stage 52)): 46.5 g; Thousand Grain Weight (g) T2 Timing ([1]; T2 (Growth Stage 65-69)): 46.4 g; Thousand Grain Weight (g) T1 Timing ([2]; T1 (Growth Stage 52)): 50.4 g; Thousand Grain Weight (g) T2 Timing ([2]; T2 (Growth Stage 65-69)): 50.7 g; Indiv Seed Weight (mg) T1 Timing ([3]; T1 (Growth Stage R1)): 276 mg; Indiv Seed Weight (mg) T2 Timing ([3]; T2 (Growth Stage R3)): 275 mg; Thousand Seed Weight (g) T1 Timing ([4]; T1 (Growth Stage R1)): 160 g; Thousand Seed Weight (g) T2 Timing ([4]; T2 (Growth Stage R3)): 159 g; % Screenings (2.2 mm) ([5]; sprayed at GS60, 2.2 mm): 4.5%; % Screenings (2.5 mm) ([5]; sprayed at GS60, 2.5 mm): 8.0%; Specific Weight (kg/hl) [5, 7]: 74.0 kg/hl; % Screenings (2.2 mm) ([6]; sprayed at GS60, 2.2 mm): 4.8%; % Screenings (2.5 mm) ([6]; sprayed at GS60, 2.5 mm): 7.3%; Specific Weight (kg/hl) [6, 7]: 68.3 kg/hl
2 | Nc1ccccc1C(=O)O [AN, anthranilic acid] | 96.8 | 98.8 | 24.0 | 24.5 | 99.7 | 98.7 | 29.8 | 29.5 | 102.0 | 98.0 | 55.5 | 53.3 | 99.7 | 101.2 | 32.8 | 33.3 | –
3 | CC(=O)Nc1ccc(O)cc1 [AC, N-(4-hydroxypheyl)acetamide, reference compound] | 102.8 | 98.8 | 25.5 | 24.5 | 98.0 | 103.7 | 29.3 | 31.0 | 98.0 | 99.8 | 53.3 | 54.3 | 101.8 | 101.8 | 33.5 | 33.5 | –
